In assay [1] the test system is MxA, ISG-15, OAS-1, and ISG-56 mRNA. The class given is cell-based, human.
The next assay relates to human fibroblasts. In kind it is cell-based.

From patent US20120315248A1 (priority 2009, published 2012) come the findings set out here.

Turning to `CCCC(CCC)C(=O)O` [VPA, valproic acid], the “basal ISG mRNA levels in SW-R” value in assay [1] is given as “reduced basal mRNA levels for three out of four ISGs”.

IFN-α: in the assay on human fibroblasts, the “protection of fibroblasts from VSV” value is reported as “completely protect”.
